System: A2780
Experiment: Antiproliferative activity against human A2780 cells after 2 days by alamar blue assay
Type: functional, cell-based
Conditions: A2780, 48 h

Compound	IC50
COc1cc2c(cc1C)C(C(C)C)CC=C2C (stereo unspecified)	> 50 µM
COc1cc2c(cc1C)C(C(C)C)CC(O)[C@]2(C)O (stereo partly specified)	> 50 µM
COc1cc2c(cc1C)C(C(C)C)CC(=O)[C@]2(C)O (stereo partly specified)	33.9 µM
COc1cc2c(cc1C)C(C(C)C)=CC(O)[C@]2(C)O (stereo partly specified)	22.1 µM
COc1cc2c(cc1C)C(O)(C(C)C)C(O)C(O)[C@]2(C)O (mixture of isomers)	35.5 µM
COc1cc2c(cc1C)[C@](O)(C(C)C)C(=O)C(=O)[C@]2(C)O (stereo in doubt)	5.5 µM
COc1cc2c(cc1C)[C@@](O)(C(C)C)C(=O)C(=O)[C@@]2(C)O (stereo in doubt)	5.9 µM
COc1cc2c(cc1C)[C@](O)(C(C)C)C(=O)C(=O)[C@@]2(C)O (stereo in doubt)	6.7 µM
COc1cc2c(cc1C)[C@@](O)(C(C)C)C(=O)C(=O)[C@]2(C)O (stereo in doubt)	6.3 µM
COc1cc2c(cc1C)C(C(C)C)=CC(=O)[C@]2(C)O [LACINILENE C METHYL ETHER]	4 µM
CC1=Cc2c(c(C)cc(O)c2C(C)C)C(=O)C1=O [MANSONONE G]	10.2 µM

— ChEMBL document CHEMBL2203038, “Isolation and synthesis of two antiproliferative calamenene-type sesquiterpenoids from Sterculia tavia from the Madagascar rain forest” (Bioorg Med Chem, 2012)
